# Assay results taken from patent US7928113B2, “Integrin-binding small molecules” (University of Southern California, priority 2005, dated 2011).
# Assays:
# [1] = tested on: MDA-MB-435 breast cancer cell line; assay: Cytotoxicity MTT assay, MDA-MB-435; type: cell-based, human; conditions: Homo sapiens; 20 μM, MDA-MB-435, 72 h MTT; read-out: % inhibition of cell growth at 20 μM, 435
# From the text: (§1) Cell Culture. Human breast cancer cells (MCF-7, αvβ3—, overexpressed wild-type p53, ER+; MDA-MB 468, p53 mutant, ER+; and MDA-MB-435, αvβ3+, p53 mutant, ER−) and non-small cell lung cancer cells H1975 were obtained from the American Type Cell Culture (Rockville, Md. Q4). The HEY human ovarian carcinoma cell line naturally resistant to cisplatin (CDDP) was kindly provided by Dr. Dubeau (University of Southern California Norris Cancer Center). Cells were maintained as monolayer cultures in RPMI 1640 supplemented with 10% fetal bovine serum (Gemini-Bioproducts, Woodland, Calif.) and 2 mmol/L L-glutamine at 37° C. in a humidified atmosphere of 5% CO2. To remove the adherent cells from the flask for passaging and counting, cells were washed with PBS without calcium or magnesium, incubated with a small volume of 0.25% trypsin-EDTA solution (Sigma, St. Louis, Mo.) for 5 to 10 minutes, and washed with culture medium and centrifuged. All experiments were done using cells in exponential cell growth.
# (§2) Cytotoxicity Assay. Cytotoxicity was assessed by 3-(4,5-dimethylthiazol-2-yl)-2,5-diphenyltetrazolium bromide (MTT) assay as previously described.^41, 54 Briefly, cells were seeded in 96-well microtiter plates and allowed to attach. Cells were subsequently treated with a continuous exposure to the corresponding drug for 72 hours. An MTT solution (at a final concentration of 0.5 mg/mL) was added to each well and cells were incubated for 4 hours at 37° C. After removal of the medium, DMSO was added and the absorbance was read at 570 nm. All assays were done in triplicate. The IC50 was then determined for each drug from a plot of log (drug concentration) versus percentage of cell kill.
# (§3) Cytotoxicity of Selected Compounds in a Panel of Cancer Cell lines. Initially, we tested all compounds in two breast cancer cell lines MDA-MB-435 and MCF7 with high and low αvβ3 expression as well as in HEY ovarian cancer cell line naturally resistant to cisplatin. […] We observed a remarkable specificity for some of the compounds against these cells. […] Considering the fact that αvβ3 mediates migration, attachment and apoptosis of cancer cells, the combination of these novel high affinity antagonists with conventional cytotoxic drugs should show improved therapeutic benefits without additional toxicity.
# (§4) NVX-188 was tested for cytotoxicity by MTT assays in two breast cancer cell lines, MDA-MB-435 with high αvβ3 integrin expression and MCF7 with low αvβ3 integrin expression, and an ovarian cancer cell line, HEY, which was used to test for cell growth inhibition evidence. NVX-188 was further evaluated in a lung cancer cell line, NCI-H1975, and a mouse fibroblast, NIH3T3. NVX-188 was not cytotoxic at the highest dose level tested (20 uM).
# [2] = tested on: MCF7 breast cancer cell line; assay: Cytotoxicity MTT assay, MCF7; type: cell-based, human; conditions: Homo sapiens; 20 μM, MCF7, 72 h MTT; read-out: % inhibition of cell growth at 20 μM, MCF7
# From the text: as §1, §2, §3, §4
# [3] = tested on: HEY ovarian cancer cell line; assay: Cytotoxicity MTT assay, HEY; type: cell-based, human; conditions: Homo sapiens; 20 μM, HEY, 72 h MTT; read-out: % inhibition of cell growth at 20 μM, HEY
# From the text: as §1, §2, §3, §4
# αvβ3 integrin = molecular target: T1, αvβ3 integrin (Homo sapiens, UniProt P05106+P06756); assay: Receptor binding assay, competitive binding with 125I-labeled echistatin on the surface of NCI-H1975 cells; conditions: for IC50: 125I-echistatin competition, NCI-H1975 cells, read-out: αvβ3 binding affinity (IC50)
# T1 construct: endogenous in cells; host or cells: NCI-H1975 cells (non-small cell lung cancer), whole cells in suspension
# Method: Receptor Binding Assay. […] 96-Well multiscreen DV plate (filter pore size: 0.65 μm, Millipore, Billerica, Mass.) was incubated with ^125I-echistatin (50,000 cpm/well) in the presence of increasing concentrations of αvβ3 antagonists. The total incubation volume was adjusted to 200 μL. After the cells were incubated for 3 h at room temperature, the plate was filtered through multiscreen vacuum manifold and washed twice with cold binding buffer. The hydrophilic PVDF filters were collected, and the radioactivity was determined using NaI(Tl) gamma counter (Packard, Meriden, Conn.). The best-fit IC50 values were calculated by fitting the data by nonlinear regression using GraphPad Prism (GraphPad Software, Inc., San Diego, Calif.). Experiments were carried out with triplicate samples.
# αvβ3 Binding. Receptor binding affinity of all compounds on the surface of non-small cell lung cancer NCI-H1975 cells was determined in competitive binding experiments using ^125I-labeled echistatin as radioligand and the results are presented in Table 3. […] These compounds represent a novel set of antagonists with diverse structural scaffolds. […] This is an important feature considering the highly electrostatic nature of the RGD peptide binding region of αvβ3. The RGD peptide forms strong electrostatic interactions through its two charged ends with αvβ3 in the αvβ3-cyclic RGD peptide complex crystal structure. Compounds AV3, AV27, and AV32 broadly fall into a RGD mimetic antagonist category, since they have a carboxylate group or amine/amide group, at either ends that can establish similar electrostatic interactions with αvβ3. Additionally, presence of several hydrophilic functional groups on these compounds favors their interaction with the highly electrostatic region of the RGD binding site of αvβ3. Given these interesting structural features, we tested additional structurally close analogues of AV27 and AV32. However, substructure search queries using the core scaffolds of these compounds in our in-house databases yield no close analogues. Structure-activity studies around the core scaffolds of these two compounds might be an alternative option to further optimize their binding affinity towards αvβ3. […] We carried out a limited structure-activity relationship (SAR) analysis on compound AV26 by testing compounds AV34-AV38 in our binding assay (Table 3). The substructure search using the core scaffold of AV26 as a search query retrieved few compounds from our in-house database of 359,224 compounds. The analogues AV34-AV38 were purchased from Chemical Diversity (San Diego, Calif.) and screened for their αvβ3 binding affinity. […] Studies are also underway to selectively deliver cytotoxic agents such as paclitaxel to αvβ3 overexpressing cancers through covalent conjugation.
# Receptor binding affinity of NVX-188 was determined through a competitive binding experiment using ^125I-radiolabeled echistatin on NCI-H1975 cells. Increasing concentrations of NVX-188 were added with a fixed amount of echistatin to determine the concentration of NVX-188 that prevents 50% of the echistatin from binding to αvβ3 integrin on the cell surface (i.e., IC50).
# [4] = Cytotoxicity MTT assay, MDA-MB-435; type: cell-based, human; conditions: human, MDA-MB-435 breast cancer cells; MDA-MB-435, Table 5
# From the text: as §1, §2, §3, §4
# [5] = Cytotoxicity MTT assay, MCF7; type: cell-based, human; conditions: human, MCF-7 breast cancer cells; MCF-7, Table 5
# From the text: as §1, §2, §3, §4
# [6] = Cytotoxicity MTT assay, HEY; type: cell-based, human; conditions: human, HEY ovarian carcinoma cells; HEY, Table 5
# From the text: as §1, §2, §3, §4
# [7] = Cytotoxicity MTT assay, NIH3T3; type: cell-based, mouse; conditions: mouse, NIH3T3 fibroblasts; NIH3T3, Table 5
# Method: as §2, §3, §4
# [8] = Cytotoxicity MTT assay, NCI-H1975; type: cell-based, human; conditions: human, NCI-H1975 non-small cell lung cancer cells; NCI-H1975, Table 5
# From the text: as §1, §2, §3, §4
IC50 (αvβ3 integrin),fold higher affinity than the parent compound AV26 (αvβ3 integrin; ratio of αvβ3 binding IC50 to AV26),SMILES,inhibition at 20 µM [1],inhibition at 20 µM [2],inhibition at 20 µM [3],IC50 at 72 h [4],IC50 at 72 h [5],IC50 at 72 h [6],IC50 at 72 h [7],IC50 at 72 h [8]
,,COc1cc(/C=C2\S/C(=N/c3cccc(C(=O)O)c3)N(C)C2=O)cc(Cl)c1O [AV37],3%,9%,0%,,,,,
0.605 µM,,CS(=O)(=O)Nc1ccc(C2=NN(C(=O)CCCC(=O)O)C(c3ccco3)C2)cc1 (stereo not shown) [AV32],0%,26%,18%,> 20 µM,> 20 µM,> 20 µM,> 20 µM,> 20 µM
,,O=C(O)COc1ccc(/C=N/NC(=O)c2ccc(O)cc2)cc1OCC(=O)O [AV29],14%,21%,9%,,,,,
,,COc1cc(/C=N/Nc2nc(Nc3ccc(F)cc3)nc(N3CCCCC3)n2)ccc1OCC(=O)O [AV11],53%,49%,0%,,,,,
0.024 µM,10 fold,CCOc1ccc(/N=C2/S/C(=C\c3ccc(N(C)C)cc3)C(=O)N2CC)cc1 [AV35],26%,36%,17%,> 20 µM,> 20 µM,> 20 µM,> 20 µM,> 20 µM
,,CN(C1=NC(=O)/C(=C\c2ccc(OCC(=O)O)cc2)S1)c1ccc(O)cc1 [AV24],9%,21%,19%,,,,,
,,Nc1ccc(C(=O)Nc2nc3ccc(C(=O)O)cc3s2)cc1 [AV9],19%,36%,0%,,,,,
,,Nc1nc(O)c2cc(CSc3ccc(C(=O)NC(CCC(=O)O)C(=O)O)cc3)ccc2n1 (stereo not shown) [AV7],5%,22%,0%,,,,,
,,Nc1nc(O)c2nc3c(nc2n1)C(=O)N(c1ccc(C(=O)NC(CCC(=O)O)C(=O)O)cc1)C3 (stereo not shown) [AV6],12%,19%,0%,,,,,
,,Cc1nnc(N/N=C/c2ccc(OCC(=O)O)cc2)nc1O [AV20],11%,27%,0%,,,,,
,,COc1cc(/C=C2/SC(N(C)c3ccc(O)cc3)=NC2=O)ccc1OCC(=O)O [AV25],26%,29%,12%,,,,,
,,O=C(CSc1nnnn1-c1ccc(O)cc1)NCc1cccc(C(=O)O)c1 [AV23],9%,34%,0%,,,,,
,,CC1=NN(c2ccc(C(=O)O)cc2)C(=O)/C1=C/c1ccc(-c2ccc(S(N)(=O)=O)cc2)o1 [AV19],30%,66%,6%,> 20 µM,19 ± 4 µM,> 20 µM,,
,,CC(=O)Nc1nc(O)c2nc(CCN(C)c3ccc(C(=O)O)cc3)cnc2n1 [AV5],49%,0%,0%,,,,,
,,CCn1cc(C(=O)O)c(=O)c2cc(F)c(N3CCN(S(=O)(=O)c4ccc(NC(C)=O)cc4)CC3)cc21 [AV22],25%,7%,0%,,,,,
,,O=C(O)c1ccc(-c2ccc(/C=N/Nc3nc(Nc4ccccc4)nc(Nc4ccccc4)n3)o2)cc1 [AV10],93%,62%,73%,18 ± 9 µM,> 20 µM,21 ± 3 µM,,
,,CCC(=O)Nc1ccc(C(=O)Nc2ccc(OCC(=O)O)cc2)cc1 [AV28],32%,32%,34%,,,,,
,,COc1cc(OC)c(/C=C2\S/C(=N/c3ccc(C(=O)O)cc3)N(C)C2=O)cc1Br [AV36],16%,29%,4%,,,,,
,,COc1cc(/C=C2\NC(=O)N(CC(=O)Nc3ccc(C)cc3)C2=O)ccc1OCc1cccc(C(=O)O)c1 [AV21],26%,43%,0%,,,,,
,,O=C(CCCCn1cnc2c(S)ncnc21)Nc1ccc(C(=O)O)c(O)c1 [AV2],1%,1%,0%,,,,,
,,O=C(CCCCn1cnc2c(S)ncnc21)Nc1ccc(C(=O)O)cc1 [AV1],0%,0%,14%,,,,,
,,Nc1nc(O)c2cc(COc3ccc(C(=O)NC(CCC(=O)O)C(=O)O)cc3)ccc2n1 (stereo not shown) [AV8],12%,24%,6%,,,,,
,,Cc1ccnc(NS(=O)(=O)c2ccc(NC(=O)c3ccc(C(=O)O)cc3C(=O)O)cc2)n1 [AV18],18%,11%,0%,,,,,
,,CCOc1cc(/C=N/Nc2nc(Nc3ccccc3)nc(N3CCCCC3)n2)ccc1OCC(=O)O [AV14],70%,3%,0%,,,,,
,,CC1=C(C#N)c2nc(N)c(C#N)c(C)c2/C1=C/c1ccc(-c2ccc(Cl)c(C(=O)O)c2)o1 [AV15],33%,14%,14%,,,,,
,,CCC(=O)Nc1nc(C)c(-c2csc(Nc3cccc(C(=O)O)c3)n2)s1 [AV31],21%,44%,62%,,,,,
,,CN(Cc1cnc2nc(N)nc(N)c2n1)c1ccc(C(=O)NC(CCCCN)C(=O)O)cc1 (stereo not shown) [AV4],16%,30%,0%,,,,,
